Measured values reported in patent US20250026745A1 (Bluejay Therapeutics, Inc., priority 2023, published 2025).
Read-outs that look alike come from different tables or passages of the source. Values belong to the compound of their own block, whether it stands above or below them.

How the values were obtained:
[1] = molecular target: HEK293 cells expressing 17β-HSD13 (Homo sapiens (Human), UniProt Q7Z5P4); assay: 17β-HSD13 cell-based assay (β-estradiol conversion, LC-MS/MS)
Procedure: HEK293 cells expressing 17β-HSD13 either stably or transiently were incubated with compounds for 60 min at 37° C. in a humidified incubator. After this first incubation step, β-estradiol was added to each well of the microtiter plate and incubated for 3 h at 37° C. in the humidified incubator. After treatment with β-Estradiol, 50 μL of supernatant was transferred to a 96-V plate containing 100 μL acetonitrile and centrifuged at 3900 rpm for 45 min. Finally, 50 μL of supernatant were taken for LC-MS/MS analysis. The chromatography part was run on a Xbridge 30 mm×2.1 mm column (Waters), at 40 degrees Celsius and a flow rate of 0.8 mL/min for 5 min, while the MS was done on a Q Exactive Orbitrap (Fisher Scientific) in Target SIM mode and negative polarity with a spray voltage of 3.5 kV. EC50 values were determined with GraphPad Prism®, where log-transformed concentration values and the inhibition data were fitted to a four-parameter logistic equation. Y=Bottom+(Top−Bottom)/(1+10^((Log EC50−X)*Hill Slope)). The original, % control, or % inhibition data are represented by Y along with their minimal (Bottom) and maximal (Top) values. The inhibitor concentration is represented by X, EC50 is the concentration at 50% maximal value, and Hill Slope is the slope factor.

[2] = molecular target: recombinant 17β-HSD13 protein (Homo sapiens (Human), UniProt Q7Z5P4); assay: 17β-HSD13 biochemical assay (NAD+/NADH Glo chemiluminescence); settings: 17β-HSD13 50 nM, NAD+ 10 mM, β-estradiol 20 μM, 2 hours room temperature
Procedure: 17β-HSD13 biochemical assays are generically described in patents WO 2022/020730, WO 2021/003295, and WO 2023/023310. More specifically, recombinant 17β-HSD13 protein was assayed in a buffer containing 200 mM Tris pH 7.5, 0.01% Triton X-100, and 0.02% BSA into a 384-well assay plate. Compounds were incubated with 17β-HSD13 (final 50 nM) and NAD+ (final 10 mM) at room temperature for 1 h prior to substrate addition. The assay reaction was then initiated by addition of β-estradiol (final 20 μM), and the reaction mixture was incubated for 2 hours at room temperature. Product formation was detected with chemiluminescence by adding equal volume of NAD+/NADH Glo reagent (Promega, #G9062) and read on a PHERAstar microplate reader (BMG LABTECH). IC50 values were determined with GraphPad Prism®, where log-transformed concentration values and the inhibition data were fitted to a four-parameter logistic equation. Y=Bottom+(Top−Bottom)/(1+10^((Log IC50−X)*HillSlope)). The original, % control, or % inhibition data are represented by Y along with their minimal (Bottom) and maximal (Top) values. The inhibitor concentration is represented by X, IC50 is the concentration at 50% maximal value, and Hill Slope is the slope factor.

[3] = HEK293 cells stably expressing 17β-HSD13 (footnote b), read-out: EC50, nM Stable
[4] = HEK293 cells transiently expressing 17β-HSD13 (footnote a), read-out: EC50, nM Transient

Sequence of HEK293 cells expressing 17β-HSD13 (Q7Z5P4 20-300): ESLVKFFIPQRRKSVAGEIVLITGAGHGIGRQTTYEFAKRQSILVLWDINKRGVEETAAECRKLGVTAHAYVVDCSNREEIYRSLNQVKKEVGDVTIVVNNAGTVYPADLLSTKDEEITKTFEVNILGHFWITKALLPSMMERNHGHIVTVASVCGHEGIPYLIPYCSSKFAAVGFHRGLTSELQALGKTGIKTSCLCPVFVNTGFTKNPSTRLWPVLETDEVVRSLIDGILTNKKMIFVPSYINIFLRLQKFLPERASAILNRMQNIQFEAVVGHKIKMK
Sequence of recombinant 17β-HSD13 protein (Q7Z5P4 20-300): as above

SMILES: C[C@H](c1ccccc1)N1C(=O)N(Cc2nnc(-c3ccc(F)c(O)c3Cl)s2)C2(CC2)C1=O [Compound I-31, 4-[[5-(2-chloro-4-fluoro-3-hydroxy-phenyl)-1,3,4-thiadiazol-2-yl]methyl]-6-[(1R)-1-phenylethyl]-4,6-diazaspiro[2.4]heptane-5,7-dione]
EC50 [1, 3]: 10.8 nM | IC50 [2]: 2.68 nM

SMILES: C[C@H](c1ccccc1)N1C(=O)N(Cc2nnc(-c3ccc(F)c(O)c3F)s2)C2(CC2)C1=O [Compound I-82, (R)-4-((5-(2,4-difluoro-3-hydroxyphenyl)-1,3,4-thiadiazol-2-yl)methyl)-6-(1-phenylethyl)-4,6-diazaspiro[2.4]heptane-5,7-dione]
EC50 [1, 3]: 8.42 nM | IC50 [2]: 1.76 ± 0.26 nM

SMILES: O=C1N(CC(F)(F)F)C(=O)C2(CC2)N1Cc1nnc(-c2cc(C(F)(F)F)cc(O)c2Cl)s1 [Compound I-40, 4-((5-(2-chloro-3-hydroxy-5-(trifluoromethyl)phenyl)-1,3,4-thiadiazol-2-yl)methyl)-6-(2,2,2-trifluoroethyl)-4,6-diazaspiro[2.4]heptane-5,7-dione]
EC50 [1, 3]: 66.4 nM | IC50 [2]: 9.8 nM

SMILES: O=C1N(Cc2ccccc2)C(=O)C2(CC2)N1Cc1nnc(-c2cc(C(F)(F)F)cc(O)c2F)s1 [Compound I-55, 6-benzyl-4-((5-(2-fluoro-3-hydroxy-5-(trifluoromethyl)phenyl)-1,3,4-thiadiazol-2-yl)methyl)-4,6-diazaspiro[2.4]heptane-5,7-dione]
EC50 [1, 3]: 29.2 nM | IC50 [2]: 2.14 nM

SMILES: O=C1N(C(c2ccccc2)C(F)(F)F)C(=O)C2(CC2)N1Cc1nnc(-c2ccc(F)c(O)c2Cl)s1 (stereo in doubt) [Compound I-53, 4-[[5-(2-chloro-4-fluoro-3-hydroxy-phenyl)-1,3,4-thiadiazol-2-yl]methyl]-6-[(S)-(difluoromethyl-fluoranyl)-phenyl-methyl]-4,6-diazaspiro[2.4]heptane-5,7-dione]
EC50 [1, 3]: 26.3 nM | IC50 [2]: 5.6 nM

SMILES: O=C1N(CC2(C(F)(F)F)CC2)C(=O)C2(CC2)N1Cc1nnc(-c2ccc(F)c(O)c2F)s1 [Compound I-19, 4-((5-(2,4-difluoro-3-hydroxyphenyl)-1,3,4-thiadiazol-2-yl)methyl)-6-((1-(trifluoromethyl)cyclopropyl)methyl)-4,6-diazaspiro[2.4]heptane-5,7-dione]
EC50 [1, 3]: 78.8 nM | IC50 [2]: 14.8 ± 2.51 nM

SMILES: CCN1C(=O)N(Cc2nnc(-c3ccc(Cl)c(O)c3Cl)s2)C2(CC2)C1=O [Compound I-9, 4-((5-(2,4-dichloro-3-hydroxyphenyl)-1,3,4-thiadiazol-2-yl)methyl)-6-ethyl-4,6-diazaspiro[2.4]heptane-5,7-dione]
EC50 [1, 4]: 960 nM | IC50 [2]: 150 nM

SMILES: C[C@@H](c1ccccc1)N1C(=O)N(Cc2nnc(-c3ccc(F)c(O)c3Cl)s2)C2(CC2)C1=O [Compound I-32, (S)-4-((5-(2-chloro-4-fluoro-3-hydroxyphenyl)-1,3,4-thiadiazol-2-yl)methyl)-6-(1-phenylethyl)-4,6-diazaspiro[2.4]heptane-5,7-dione]
EC50 [1, 3]: 14.7 nM | IC50 [2]: 3.72 nM

SMILES: O=C1N(Cc2ccccc2)C(=O)C2(CC2)N1Cc1nnc(-c2ccc(F)c(O)c2F)s1 [Compound I-20, 6-benzyl-4-((5-(2,4-difluoro-3-hydroxyphenyl)-1,3,4-thiadiazol-2-yl)methyl)-4,6-diazaspiro[2.4]heptane-5,7-dione]
EC50 [1, 3]: 11.6 nM | IC50 [2]: 2.28 ± 0.933 nM

SMILES: O=C1N(CC(F)(F)F)C(=O)C2(CC2)N1Cc1nnc(-c2cc(F)c(F)c(O)c2F)s1 [Compound I-68, 4-((5-(2,4,5-trifluoro-3-hydroxyphenyl)-1,3,4-thiadiazol-2-yl)methyl)-6-(2,2,2-trifluoroethyl)-4,6-diazaspiro[2.4]heptane-5,7-dione]
EC50 [1, 3]: 35 nM

Next, values leading:

EC50 [1, 3]: 121 nM | IC50 [2]: 3.11 nM
SMILES: O=C1N([C@@H](c2ccc(-c3ccc(F)cc3)cc2F)C(F)(F)F)C(=O)C2(CC2)N1Cc1nnc(-c2ccc(F)c(O)n2)s1 [Compound I-96, (S)-6-(1-(3,4′-difluoro-[1,1′-biphenyl]-4-yl)-2,2,2-trifluoroethyl)-4-((5-(5-fluoro-6-hydroxypyridin-2-yl)-1,3,4-thiadiazol-2-yl)methyl)-4,6-diazaspiro[2.4]heptane-5,7-dione]

EC50 [1, 4]: 175 nM | IC50 [2]: 86.1 nM
SMILES: CCN1C(=O)C(C)N(Cc2nnc(-c3ccc(F)c(O)c3F)s2)C1=O (stereo not drawn) [Compound I-3, 1-((5-(2,4-difluoro-3-hydroxyphenyl)-1,3,4-thiadiazol-2-yl)methyl)-3-ethyl-5-methylimidazolidine-2,4-dione]

EC50 [1, 3]: 4.74 nM | IC50 [2]: 2.5 nM
SMILES: O=C1N(Cc2nnc(-c3ccc(F)c(O)c3F)s2)C2(CC2)C(=O)N1C1(c2ccccc2)CC1 [Compound I-86, 4-((5-(2,4-difluoro-3-hydroxyphenyl)-1,3,4-thiadiazol-2-yl)methyl)-6-(1-phenylcyclopropyl)-4,6-diazaspiro[2.4]heptane-5,7-dione]

EC50 [1, 3]: 107 nM | IC50 [2]: 18.7 ± 2.67 nM
SMILES: O=C1N(CC2(C(F)(F)F)CC2)C(=O)C2(CC2)N1Cc1nnc(-c2ccc(F)c(O)c2Cl)s1 [Compound I-26, 4-((5-(2-chloro-4-fluoro-3-hydroxyphenyl)-1,3,4-thiadiazol-2-yl)methyl)-6-((1-(trifluoromethyl)cyclopropyl)methyl)-4,6-diazaspiro[2.4]heptane-5,7-dione]

EC50 [1, 3]: 108 nM | IC50 [2]: 4 nM
SMILES: Cc1c(-c2nnc(CN3C(=O)N([C@@H](c4ccccc4)C(F)(F)F)C(=O)C34CC4)s2)ccc(F)c1O [Compound I-91, (S)-4-((5-(4-fluoro-3-hydroxy-2-methylphenyl)-1,3,4-thiadiazol-2-yl)methyl)-6-(2,2,2-trifluoro-1-phenylethyl)-4,6-diazaspiro[2.4]heptane-5,7-dione]

EC50 [1, 3]: 52.7 nM | IC50 [2]: 2.46 nM
SMILES: O=C1N(Cc2ccccc2)C(=O)C2(CC2)N1Cc1nnc(-c2cc(C(F)(F)F)c(F)c(O)c2F)s1 [Compound I-57, 6-benzyl-4-((5-(2,4-difluoro-3-hydroxy-5-(trifluoromethyl)phenyl)-1,3,4-thiadiazol-2-yl)methyl)-4,6-diazaspiro[2.4]heptane-5,7-dione]

EC50 [1, 3]: 15.7 nM | IC50 [2]: 4.08 nM
SMILES: CC[C@@H](C)N1C(=O)N(Cc2nnc(-c3ccc(F)c(O)c3F)s2)C2(CC2)C1=O [Compound I-42, (R)-6-(sec-butyl)-4-((5-(2,4-difluoro-3-hydroxyphenyl)-1,3,4-thiadiazol-2-yl)methyl)-4,6-diazaspiro[2.4]heptane-5,7-dione]

EC50 [1, 3]: 19.2 nM
SMILES: O=C1N(Cc2ccccc2)C(=O)C2(CC2)N1Cc1nnc(-c2cc(C(F)F)c(F)c(O)c2F)s1 [Compound I-65, 6-benzyl-4-((5-(5-(difluoromethyl)-2,4-difluoro-3-hydroxyphenyl)-1,3,4-thiadiazol-2-yl)methyl)-4,6-diazaspiro[2.4]heptane-5,7-dione]

EC50 [1, 3]: 51 nM | EC50 [1, 4]: 118 nM | IC50 [2]: 17.9 ± 0.0566 nM
SMILES: CCN1C(=O)N(Cc2nnc(-c3ccc(F)c(O)c3Cl)s2)C2(CC2)C1=O [Compound I-10, 4-((5-(2-chloro-4-fluoro-3-hydroxyphenyl)-1,3,4-thiadiazol-2-yl)methyl)-6-ethyl-4,6-diazaspiro[2.4]heptane-5,7-dione]

EC50 [1, 3]: 125 nM | IC50 [2]: 9.6 nM
SMILES: CCN1C(=O)N(Cc2nnc(-c3cc(C(F)(F)F)cc(O)c3F)s2)C2(CC2)C1=O [Compound I-14, 6-ethyl-4-[[5-[2-fluoro-3-hydroxy-5-(trifluoromethyl)phenyl]-1,3,4-thiadiazol-2-yl]methyl]-4,6-diazaspiro[2.4]heptane-5,7-dione]

EC50 [1, 3]: 8.38 nM | IC50 [2]: 1.01 ± 0.125 nM
SMILES: O=C1N([C@H](c2ccc(F)cc2F)C(F)(F)F)C(=O)C2(CC2)N1Cc1nnc(-c2ccc(F)c(O)c2F)s1 [Compound I-90A, (R)-4-((5-(2,4-difluoro-3-hydroxyphenyl)-1,3,4-thiadiazol-2-yl)methyl)-6-(1-(2,4-difluorophenyl)-2,2,2-trifluoroethyl)-4,6-diazaspiro[2.4]heptane-5,7-dione]

EC50 [1, 3]: 21.5 nM
SMILES: O=C1N(Cc2ccccc2)C(=O)C2(CC2)N1Cc1nnc(-c2cc(F)c(F)c(O)c2F)s1 [Compound I-69, 6-benzyl-4-((5-(2,4,5-trifluoro-3-hydroxyphenyl)-1,3,4-thiadiazol-2-yl)methyl)-4,6-diazaspiro[2.4]heptane-5,7-dione]
